Measured values from PubChem BioAssay (NCI).
Values joined by “and” are separate entries in the source; they are usually repeats but may differ in a detail not shown here. Equal entries are not always repeated.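 Five concentrations, 48 hours, 96-well plates. GI50 marks 50% less growth. The concentration for full growth arrest is given as TGI.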

Key:
Assay in all cases: inhibition of tumour cell growth, NCI panel, 48 h
[1] = system: RXF 393 renal
[2] = system: SNB-75 CNS
[3] = system: K-562 leukemia
[4] = system: LOX IMVI melanoma
[5] = system: HT29 colon
[6] = system: KM12 colon
[7] = system: DU-145 prostate
[8] = system: MDA-MB-435
[9] = system: PC-3 prostate
[10] = system: SF-268 CNS

## Nc1ccc2c(SCC(=O)Nc3ccccc3-c3ccccc3NC(=O)CSc3c4ccccc4nc4cc(N)ccc34)c3ccccc3nc2c1
[1]
  TGI: 63.5 µM
[2]
  TGI: > 96.4 µM
[3]
  TGI: 28.3 µM
[4]
  TGI: 66.2 µM
[5]
  TGI: > 100 µM
[6]
  TGI: 65.8 µM
[7]
  TGI: > 58.7 µM
[8]
  TGI: > 73.5 µM
[9]
  TGI: 54.6 µM
[10]
  TGI: 93.3 µM

## Oc1cccc(-c2nc(N3CCOCC3)c3oc4ncccc4c3n2)c1
[1]
  GI50: 0.0796 µM and 0.116 µM
  TGI: 0.361 µM and 0.55 µM
[2]
  GI50: 0.0401 µM and < 0.0151 µM
  TGI: 0.311 µM and 0.114 µM
[3]
  GI50: 1.35 µM and 2.18 µM
  TGI: > 100 µM
[4]
  GI50: 0.158 µM and 0.151 µM
  TGI: 2.33 µM and 3.02 µM
[5]
  GI50: 6.52 µM and 8.37 µM
  TGI: > 100 µM
[6]
  GI50: 0.286 µM and 0.297 µM
  TGI: > 100 µM
[7]
  GI50: 0.188 µM and 0.161 µM
  TGI: > 100 µM
[8]
  GI50: 0.122 µM and 0.0675 µM
  TGI: 0.847 µM and 0.784 µM
[9]
  GI50: 0.0505 µM and 0.0462 µM
  TGI: > 100 µM
[10]
  GI50: 0.196 µM and 0.181 µM
  TGI: > 100 µM and 19.9 µM

## Cc1cc(C)c2nccc(NCCCN(C)C)c2c1[N+](=O)[O-]
[1]
  TGI: 47.8 µM
[2]
  TGI: > 100 µM
[3]
  TGI: > 100 µM
[4]
  TGI: 51.9 µM
[5]
  TGI: 41.5 µM
[6]
  TGI: > 100 µM
[7]
  TGI: > 100 µM
[8]
  TGI: > 100 µM
[9]
  TGI: > 100 µM
[10]
  TGI: 95 µM

## Cc1cc([C@H](C)Nc2nccc(N3C(=O)OC[C@@H]3[C@H](C)F)n2)ncc1-c1ccnc(C(F)(F)F)c1
[1]
  GI50: 11.3 µM
  TGI: 86.4 µM
[2]
  GI50: 88.2 µM
  TGI: > 100 µM
[3]
  GI50: 37.1 µM
  TGI: > 100 µM
[4]
  GI50: 36.5 µM
  TGI: > 100 µM
[5]
  GI50: 35.6 µM
  TGI: > 100 µM
[6]
  GI50: 33.8 µM
  TGI: > 100 µM
[7]
  GI50: 75.6 µM
  TGI: > 100 µM
[8]
  GI50: 41.1 µM
  TGI: > 100 µM
[9]
  GI50: 31.3 µM
  TGI: > 100 µM
[10]
  GI50: 54 µM
  TGI: > 100 µM

## NCCNc1nc2ccccc2c2c(=O)c3cc(F)cc(Cl)c3sc12
[1]
  GI50: 1.62 µM
  TGI: 3.16 µM
[2]
  GI50: 1.27 µM
  TGI: 2.56 µM
[3]
  GI50: 0.261 µM
  TGI: 1.03 µM
[4]
  GI50: 1.66 µM
  TGI: 3.17 µM
[5]
  GI50: 1.56 µM
  TGI: 3.3 µM
[6]
  GI50: 1.73 µM
  TGI: 3.24 µM
[7]
  GI50: 1.73 µM
  TGI: 3.22 µM
[8]
  GI50: 1.73 µM
  TGI: 3.22 µM
[9]
  GI50: 1.42 µM
  TGI: 2.9 µM
[10]
  GI50: 1.57 µM
  TGI: 3.29 µM

## CC(C)(C)OC(=O)n1c(Cl)c(C(=O)N=C=S)c2ccccc21
[1]
  GI50: 53.4 µM
  TGI: > 100 µM
[2]
  GI50: > 100 µM
  TGI: > 100 µM
[3]
  GI50: 47 µM
  TGI: > 100 µM
[4]
  GI50: 29.2 µM
  TGI: > 100 µM
[5]
  GI50: > 100 µM
  TGI: > 100 µM
[6]
  GI50: 18.4 µM
  TGI: 52 µM
[7]
  GI50: 36 µM
  TGI: > 100 µM
[8]
  GI50: 80.8 µM
  TGI: > 100 µM
[9]
  GI50: 24.2 µM
  TGI: > 100 µM
[10]
  GI50: 37.5 µM
  TGI: > 100 µM

## Cc1ccc2c(C(C[N+](=O)[O-])c3ccco3)c(-c3ccccc3)[nH]c2c1 (stereo not drawn)
[1]
  GI50: 32.2 µM
  TGI: > 100 µM
[2]
  GI50: 4.75 µM
  TGI: 71 µM
[3]
  GI50: 5.19 µM
  TGI: > 100 µM
[4]
  GI50: 44.2 µM
  TGI: > 100 µM
[5]
  GI50: > 100 µM
  TGI: > 100 µM
[6]
  GI50: 21.5 µM
  TGI: > 100 µM
[7]
  GI50: 74.4 µM
  TGI: > 100 µM
[8]
  GI50: 3.04 µM
  TGI: 10.8 µM
[9]
  GI50: 39.2 µM
  TGI: > 100 µM
[10]
  GI50: > 100 µM
  TGI: > 100 µM

## COc1ccc(-c2nn3ncccc3c2-c2ccnc(Nc3cccc(C(F)(F)F)c3)n2)cc1
[1]
  GI50: 5.76 µM
  TGI: 24.5 µM
[2]
  GI50: > 16.3 µM
  TGI: > 25 µM
[3]
  GI50: 8.04 µM
  TGI: > 25 µM
[4]
  GI50: 6.53 µM
  TGI: > 25 µM
[5]
  GI50: 7.56 µM
  TGI: > 25 µM
[6]
  GI50: 9.33 µM
  TGI: > 25 µM
[7]
  GI50: 12.1 µM
  TGI: > 25 µM
[8]
  GI50: 10.1 µM
  TGI: > 25 µM
[9]
  GI50: 7.25 µM
  TGI: > 25 µM
[10]
  GI50: 9.86 µM
  TGI: > 25 µM

## Cc1cc(Nc2cc(N3CCN(C)CC3)nc(C#Cc3ccccc3)n2)n[nH]1
[1]
  GI50: 1.18 µM
  TGI: 3.79 µM
[2]
  GI50: 0.725 µM
  TGI: 2.91 µM
[3]
  GI50: 3.79 µM
  TGI: 24.4 µM
[4]
  GI50: 1.85 µM
  TGI: 12.8 µM
[5]
  GI50: 2.02 µM
  TGI: 8.08 µM
[6]
  GI50: 0.35 µM
  TGI: 11.7 µM
[7]
  GI50: 4.18 µM
  TGI: 18.2 µM
[8]
  GI50: 3.24 µM
  TGI: 16.1 µM
[9]
  GI50: 3.17 µM
  TGI: 25.4 µM
[10]
  GI50: 3.82 µM
  TGI: 16.8 µM

## Fc1ccc(-c2cc(-c3cn[nH]c3-c3ccccn3)ccn2)cc1
[1]
  GI50: > 25 µM
  TGI: > 25 µM
[2]
  GI50: > 25 µM
  TGI: > 25 µM
[3]
  GI50: > 25 µM
  TGI: > 25 µM
[4]
  GI50: > 25 µM
  TGI: > 25 µM
[5]
  GI50: > 25 µM
  TGI: > 25 µM
[6]
  GI50: > 25 µM
  TGI: > 25 µM
[7]
  GI50: > 25 µM
  TGI: > 25 µM
[8]
  GI50: > 25 µM
  TGI: > 25 µM
[9]
  GI50: > 25 µM
  TGI: > 25 µM
[10]
  GI50: > 25 µM
  TGI: > 25 µM

## CC[C@H](C)[C@H](NC(=O)N[C@@H](C)c1ccccc1)C(=O)N(C)[C@H](C[C@@H](OC(C)=O)c1nc(C(=O)N[C@@H](Cc2ccccc2)C[C@H](C)C(=O)OC)cs1)C(C)C
[1]
  GI50: 13.9 µM
  TGI: 57.3 µM
[2]
  GI50: 13.8 µM
  TGI: > 100 µM
[4]
  GI50: 30.9 µM
  TGI: > 100 µM
[5]
  GI50: 28.3 µM
  TGI: > 100 µM
[6]
  GI50: 17.2 µM
  TGI: 84.3 µM
[7]
  GI50: 32.8 µM
  TGI: > 100 µM
[8]
  GI50: 3.27 µM
  TGI: 13.3 µM
[9]
  GI50: 27.5 µM
  TGI: > 100 µM
[10]
  GI50: 29.7 µM
  TGI: > 100 µM

## CCCCCCCCCCCCNC(=O)[C@H]1CSC(c2ccsc2)N1 (stereo partly drawn)
[1]
  GI50: 0.96 µM
  TGI: 1.69 µM
[2]
  GI50: 0.938 µM
  TGI: 1.67 µM
[3]
  GI50: 1.02 µM
  TGI: 2.04 µM
[4]
  GI50: 0.824 µM
  TGI: 1.64 µM
[5]
  GI50: 0.995 µM
  TGI: 1.83 µM
[6]
  GI50: 0.868 µM
  TGI: 1.64 µM
[7]
  GI50: 0.979 µM
  TGI: 1.82 µM
[8]
  GI50: 0.68 µM
  TGI: 1.35 µM
[9]
  GI50: 0.837 µM
  TGI: 1.56 µM
[10]
  GI50: 0.613 µM
  TGI: 1.45 µM

## NC1(C(=O)O)CSSC1
[1]
  GI50: 3.13 µM
  TGI: 11.1 µM
[2]
  GI50: 2.91 µM
  TGI: 21.5 µM
[3]
  GI50: 3.7 µM
  TGI: > 100 µM
[4]
  GI50: 3.24 µM
  TGI: 14.8 µM
[5]
  GI50: 3.84 µM
  TGI: 31.7 µM
[6]
  GI50: 11.9 µM
  TGI: 80.9 µM
[7]
  GI50: 7.63 µM
  TGI: > 100 µM
[8]
  GI50: 3.54 µM
  TGI: 13.9 µM
[9]
  GI50: 21.5 µM
  TGI: > 100 µM
[10]
  GI50: 7.6 µM
  TGI: > 100 µM
